Measurements from patent publication US20020183309A1, “Novel amines as histamine-3 receptor ligands and their therapeutic applications” (priority 2001, published 2002).

biological target: T1, histamine-3 receptors (H3 receptor) (Rattus norvegicus, UniProt Q9QYN8); experiment: (3H)-N-α-methylhistamine binding to rat cortical membranes; conditions: not given
T1 construct: from tissue; host or cells: male Sprague-Dawley rat brain cortex membranes
Method: Briefly, male Sprague-Dawley rat brain cortices were homogenized (1 g tissue/10 mL buffer) in 50 mM Tris-HCl/5 mM EDTA containing protease inhibitor cocktail (Calbiochem) using a polytron set at 20,500 rpm. Homogenates were centrifuged for 20 minutes at 40,000×g. The supernatant was decanted, and pellets were weighed. The pellet was resuspended by polytron homogenization in 40 mL 50 mM Tris-HCl/5 mM EDTA with protease inhibitors and centrifuged for 20 minutes at 40,000×g. […] Rat cortical membranes (12 mg wet weight/tube) were incubated with (^3H)-N-α-methylhistamine (˜0.6 nM) with or without H3 receptor antagonists in a total incubation volume of 0.5 mL of 50 mM Tris-HCl/5 mM EDTA (pH 7.7). Test compounds were dissolved in DMSO to provide a 20 mM solution, serially diluted and then added to the incubation mixtures prior to initiating the incubation assay by addition of the membranes. Thioperamide (3 μM) was used to determine nonspecific binding. Binding incubations were conducted for 30 minutes at 25° C. and terminated by addition of 2 mL of ice cold 50 mM Tris-HCl (pH 7.7) and filtration through 0.3% polyethylenimine-soaked Unifilter plates (Packard). These filters were washed 4 additional times with 2 mL of ice-cold 50 mM Tris-HCl and dried for 1 hour. Radioactivity was determined using liquid scintillation counting techniques. Results were analyzed by Hill transformation and Ki values were determined using the Cheng-Prusoff equation.

T1 sequence (Q9QYN8 whole entry): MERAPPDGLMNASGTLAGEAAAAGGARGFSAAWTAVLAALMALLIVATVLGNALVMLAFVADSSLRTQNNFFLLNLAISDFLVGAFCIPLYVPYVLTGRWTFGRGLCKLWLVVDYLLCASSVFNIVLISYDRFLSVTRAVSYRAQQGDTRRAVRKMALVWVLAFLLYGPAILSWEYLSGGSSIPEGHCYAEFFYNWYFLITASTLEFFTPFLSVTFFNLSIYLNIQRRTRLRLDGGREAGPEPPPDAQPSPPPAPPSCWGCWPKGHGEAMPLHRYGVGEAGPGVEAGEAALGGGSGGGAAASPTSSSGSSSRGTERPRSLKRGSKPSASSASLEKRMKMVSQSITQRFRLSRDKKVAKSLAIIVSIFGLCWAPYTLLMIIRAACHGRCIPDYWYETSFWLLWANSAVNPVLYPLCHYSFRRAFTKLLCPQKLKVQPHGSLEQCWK

For `CN(C)[C@@H]1CCN(CCc2cc3cc(-c4ccc(C#N)cc4)ccc3o2)C1` [Example 66, 4-(2-{2-[(3R)-3-(dimethylamino)pyrrolidinyl]ethyl}-1-benzofuran-5-yl)benzonitrile], the Ki was 90.4 nM.

same assay, conditions: male Sprague-Dawley rat brain cortical membranes; (3H)-N-α-methylhistamine ~0.6 nM; 30 minutes at 25° C.; Cheng-Prusoff equation; read-out: Ki

`CC(C)N(C)CCc1cc2cc(-c3ccc(C(=O)N4CCOCC4)cn3)ccc2o1` [Example 56, N-isopropyl-N-methyl-N-(2-{5-[5-(4-morpholinylcarbonyl)-2-pyridinyl]-1-benzofuran-2-yl}ethyl)amine] and `CCN(CCc1cc2cc(-c3ccc(C(=O)N4CCOCC4)cn3)ccc2o1)C(C)C` [Example 57, N-ethyl-N-isopropyl-N-(2-{5-[5-(4-morpholinylcarbonyl)-2-pyridinyl]-1-benzofuran-2-yl}ethyl)amine] are within 1.5-fold of each other in Ki: 105 nM for the first, 115 nM for the second.

Going from `CN(C)CCc1cc2cc(-c3ccc(C(=O)N4CCOCC4)cn3)ccc2o1` [Example 58, N,N-dimethyl-N-(2-{5-[5-(4-morpholinylcarbonyl)-2-pyridinyl]-1-benzofuran-2-yl}ethyl)amine] to `CCCN(CC)CCc1cc2cc(-c3ccc(C(=O)N4CCOCC4)cn3)ccc2o1` [Example 59, N-ethyl-N-propyl-N-(2-{5-[5-(4-morpholinylcarbonyl)-2-pyridinyl]-1-benzofuran-2-yl}ethyl)amine], the Ki falls from 133 nM to 79.1 nM (1.7-fold). The second binds more tightly here.

First: O=C(c1ccc(-c2ccc3oc(CCN4CCC5(CC4)OCCO5)cc3c2)nc1)N1CCOCC1 [Example 60, 8-(2-{5-[5-(4-morpholinylcarbonyl)-2-pyridinyl]-1-benzofuran-2-yl}ethyl)-1,4-dioxa-8-azaspiro[4.5]decane]
Second: O=C(c1ccc(-c2ccc3oc(CCN4CC5CC4CO5)cc3c2)nc1)N1CCOCC1 (centres unmarked) [Example 61, 5-(2-{5-[5-(4-morpholinylcarbonyl)-2-pyridinyl]-1-benzofuran-2-yl}ethyl)-2-oxa-5-azabicyclo[2.2.1]heptane]
The Ki of the first is 7-fold higher: 1000 nM for the first, 143 nM for the second.

Going from `C=CCNCCc1cc2cc(-c3ccc(C(=O)N4CCOCC4)cn3)ccc2o1` [Example 63, N-allyl-N-(2-{5-[5-(4-morpholinylcarbonyl)-2-pyridinyl]-1-benzofuran-2-yl}ethyl)amine] to `CCCNCCc1cc2cc(-c3ccc(C(=O)N4CCOCC4)cn3)ccc2o1` [Example 65, N-(2-{5-[5-(4-morpholinylcarbonyl)-2-pyridinyl]-1-benzofuran-2-yl}ethyl)-N-propylamine], the Ki falls from 1000 nM to 596 nM (1.7-fold).

First: O=C(c1ccc(-c2ccc3oc(CCNCCCO)cc3c2)nc1)N1CCOCC1 [Example 64, 3-[(2-{5-[5-(4-morpholinylcarbonyl)-2-pyridinyl]-1-benzofuran-2-yl}ethyl)amino]-1-propanol]
Second: C[C@@H]1CCCN1CCc1cc2cc(C(=O)c3cccc(Cl)c3)ccc2o1 [Example 71, (3-chlorophenyl)(2-{2-[(2R)-2-methyl-1-pyrrolidinyl]ethyl}-1-benzofuran-5-yl)methanone]
The Ki of the first is 500-fold higher: 1000 nM for the first, 2 nM for the second. The second binds more tightly here.

First: COc1ccc(C(=O)c2ccc3oc(CCN4CCC[C@H]4C)cc3c2)cc1 [Example 73, (4-methoxyphenyl)(2-{2-[(2R)-2-methyl-1-pyrrolidinyl]ethyl}-1-benzofuran-5-yl)methanone]
Second: CSc1ccc(C(=O)c2ccc3oc(CCN4CCC[C@H]4C)cc3c2)cc1 [Example 78, (2-{2-[(2R)-2-methyl-1-pyrrolidinyl]ethyl}-1-benzofuran-5-yl)[4-(methylthio)phenyl]methanone]
The Ki of the first is 2.8-fold lower: 2.9 nM for the first, 8.2 nM for the second. The first binds more tightly here.

First: C[C@@H]1CCCN1CCc1cc2cc(C(=O)C3CC3)ccc2o1 [Example 75, cyclopropyl(2-{2-[(2R)-2-methyl-1-pyrrolidinyl]ethyl}-1-benzofuran-5-yl)methanone]
Second: CCC(CC)CC(=O)c1ccc2oc(CCN3CCC[C@H]3C)cc2c1 [Example 76, 3-ethyl-1-(2-{2-[(2R)-2-methyl-1-pyrrolidinyl]ethyl}-1-benzofuran-5-yl)-1-pentanone]
The Ki of the first is 2.5-fold higher: 9.9 nM for the first, 4 nM for the second.

Going from `Cc1cc(C(=O)c2ccc3oc(CCN4CCC[C@H]4C)cc3c2)ccc1Cl` [Example 77, (4-chloro-3-methylphenyl)(2-{2-[(2R)-2-methyl-1-pyrrolidinyl]ethyl}-1-benzofuran-5-yl)methanone] to `COc1cccc(C(=O)c2ccc3oc(CCN4CCC[C@H]4C)cc3c2)c1` [Example 83, (3-methoxyphenyl)(2-{2-[(2R)-2-methyl-1-pyrrolidinyl]ethyl}-1-benzofuran-5-yl)methanone], the Ki falls from 6 nM to 1.1 nM (5.5-fold).

`C[C@@H]1CCCN1CCc1cc2cc(C(=O)c3ccc(N(C)C)cc3)ccc2o1` [Example 79, [4-(dimethylamino)phenyl](2-{2-[(2R)-2-methyl-1-pyrrolidinyl]ethyl}-1-benzofuran-5-yl)methanone] and `C[C@@H]1CCCN1CCc1cc2cc(C(=O)c3ccccc3)ccc2o1` [Example 84, (2-{2-[(2R)-2-methyl-1-pyrrolidinyl]ethyl}-1-benzofuran-5-yl)(phenyl)methanone] are within 1.5-fold of each other in Ki: 3.8 nM for the first, 2.8 nM for the second.

`COc1ccccc1C(=O)c1ccc2oc(CCN3CCC[C@H]3C)cc2c1` [Example 82, (2-methoxyphenyl)(2-{2-[(2R)-2-methyl-1-pyrrolidinyl]ethyl}-1-benzofuran-5-yl)methanone] gave a Ki of 1.6 nM.
